The target of this experiment is T1, CCK-A receptor (Rattus norvegicus, UniProt P30551).
T1 construct: from tissue; host or cells: pancreas membranes of Sprague-Dawley rat
T1 sequence (P30551 1-444): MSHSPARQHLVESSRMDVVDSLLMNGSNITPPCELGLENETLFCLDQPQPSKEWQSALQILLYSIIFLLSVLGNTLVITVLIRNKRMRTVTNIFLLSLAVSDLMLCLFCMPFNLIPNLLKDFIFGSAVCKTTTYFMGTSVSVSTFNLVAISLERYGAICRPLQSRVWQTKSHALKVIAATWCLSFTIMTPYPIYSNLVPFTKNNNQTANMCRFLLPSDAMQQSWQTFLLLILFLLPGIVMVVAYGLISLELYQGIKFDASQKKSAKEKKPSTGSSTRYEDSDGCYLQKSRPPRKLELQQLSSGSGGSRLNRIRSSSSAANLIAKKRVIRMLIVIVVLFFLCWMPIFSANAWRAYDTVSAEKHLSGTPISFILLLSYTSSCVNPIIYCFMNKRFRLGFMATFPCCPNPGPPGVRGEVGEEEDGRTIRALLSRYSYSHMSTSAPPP
Nature of the experiment: CCK-A receptor binding assay (displacement of 3H-L-364,718 from rat pancreas membranes). More on the design: species or system Sprague-Dawley rat. Conditions: 3H-L-364,718 0.2 nM, 37° C., 30 min, read-out: In vitro Binding Data IC50 CCK. How it is done: Washer Buffer (for use with Brandel Cell Harvester):
30 liters of 50 mM Tris, ph 7.7: Dissolve 181.7 g. Tris base in 4 1. deionized water at room temperature. Adjust pH to 7.7 with 6 N HCl and Q.S. to 30 1.
50 mM Tris-Cl, 5 mM MgCl2, 5 mM dithio-thretiol, 0.14 mg/ml bacitracin, and 2 mg/ml bovine serum albumin.
1 liter of 5X stock buffer:
30.28 g. Tris base per 800 ml D.I. water 5.09 g. MgCl2 6 H2 O, pH to 7.7 at room temperature with 6N HCl and Q.S. 1 liter, store at 4° C.
250 ml working buffer kept on ice:
50 ml of 5X stock buffer 0.1928 g. dithiothretiol (5 mM), 35 mg bacitracin (0.14 mg/ml), and 0.5 g. BSA (2mg/ml).
Unlabeled L-364,718(nonpeptide ligand):
Unlabeled L-364,718 (300 nM final concentration) is used to define nonspecific binding. A 3 mM solution is made in absolute ethanol and stored in a scintillation vial at -70° C. Aliquots are diluted 100-fold in the assay.
A Sprague-Dawley rat is sacrificed by asphyxiation with carbon dioxide and the pancreas removed. The tissue is immersed in cold wash buffer and carefully trimmed of fat, connective tissue, blood vessels, blotted and weighed. The tissue is homogenized in a Sorvall SS-34 centrifuge tube in 50 volumes of wash buffer using a Polytron at setting 7 for 15 seconds. The tissue is centrifuged (Sorvall SS-34) at 19,000 rpm for 10 min. The supernatant is poured off and the pellet resuspended in sufficient buffer to obtain a contraction of 40 mg tissue wet weight/ml. Separate aliquots (2,3ml) are placed in each of 8 centrifuge tubes and centrifuged as before. The supernatants are poured off and the pellets stored at -70° C. Stored pellets are sufficient for the assay of 160 tubes and are stable for 1-2 months.
During the assay the stored membranes are resuspended in 40 ml of assay buffer by scraping the pellet off the wall of the centrifuge tube and washing it into a teflon-glass homogenizer. Membranes are resuspended by 5 passes with the teflon pestle and the membranes stored on ice until ready for use.
Preparation of Compounds:
Compounds are prepared in DMSO (dimethyl sulfoxide) or in assay buffer. The majority of structures active as CCK antagonists generally require DMSO for complete solubility. Approximately 2-3 mg of compound is weighed directly into a 13×100 mm test tube and sufficient DMSO added to obtain a working stock solution at a concentration 100 fold greater than the highest concentration being tested in the assay. A total of 10 μl of each concentration of drug is added into a final volume of 1 ml to yield a 100 fold dilution of the, working stock solution. Control binding tubes ("totals and nonspecifics") are also treated with 10 μl DMSO.
^3 H-L-364,718 is obtained from New England Nuclear (Cat. #971) and is used as supplied. The final assay concentration of ^3 H-L-364,718 in assay buffer should be 0.2 nM in a final assay volume of 1 ml. ^3 H-L-364,718 (0.2 pmol) is added into the assay in a volume of 25 μl (8 nM working stock solution). The required dilution (usually>1000 fold) is obtained by dividing the working stock concentration into the concentration of the specific lot.
Samples are prepared in triplicate and a "total" (buffer addition) and "nonspecific" (300 nM unlabeled L-364,718) set of tubes included in each set of 24 tubes. The remaining 6 sets of triplicates are used either for screening or IC50 determinations. The order of addition is drugs-DMSO, buffer, unlabeled L-364,718, ^3 H-L-364,718, and to start the assay, membranes.
While tubes are incubating a shaking water bath at 37° C. for 30 min Brandel deposit/dispense filters are presoaked in wash buffer. Following the end of the incubation, sets of 24 tubes are rapidly washed with assay buffer as follows. Assay buffer is added to the incubation tubes to the height of the uppermost cross support in the standard Brandel test tube rack and the contents immediately aspirated. This process is repeated twice more, the filter removed, marked and the next set of 24 tubes processed. […]
For orientation: Displacement assays read how much labelled ligand stays bound in the presence of the test substance.

pIC50: −log10 of the molar value. Bounds are passed on as bounds.

For orientation: pIC50 means the IC50 on a negative log10 scale, so that one unit is a factor of ten.

As to `CC(C)C[C@H](NC(=O)[C@H]1Cc2c([nH]c3ccccc23)CN1)C(=O)N[C@@H](CC(=O)O)C(N)=O` [Example 1, N-[(3R)-1,2,3,4-tetrahydro-9H-pyrido[3,4-b]indole-3-carboxyl]-L-leucyl-L-aspartic acid amide], the pIC50 was below 3.52.
The result for `CC(C)C[C@H](NC(=O)[C@@H]1Cc2c([nH]c3ccccc23)CN1)C(=O)N[C@@H](CC(=O)O)C(N)=O` [Example 2, N-[(3S)-1,2,3,4-tetrahydro-9H-pyrido[3,4-b]indole-3-carboxyl]-L-leucyl-L-aspartic acid amide] reads below 3.52.
The figure for `NC(=O)[C@H](CC(=O)O)NC(=O)[C@H]1Cc2c([nH]c3ccccc23)CN1` [Example 3, N-[(3R)-1,2,3,4-tetrahydro-9H-pyrido[3,4-b]-indole-3-carboxyl]-L-aspartic acid amide] is below 3.52.
Take `NC(=O)[C@H](CC(=O)O)NC(=O)[C@@H]1Cc2c([nH]c3ccccc23)CN1` [Example 4, N-[(3S)-1,2,3,4-tetrahydro-9H-pyrido[3,4-b]indole-3-carboxyl]-L-aspartic amide]: the pIC50 is below 3.52.
On to `O=C(NCC(c1ccccc1)c1ccccc1)[C@H]1Cc2c([nH]c3ccccc23)CN1` [Example 5, (3R)-3-(2,2'-diphenyl)ethylcarbamoyl-1,2,3,4-tetrahydro-9H-pyrido[3,4-b]indole], for which the pIC50 is 4.22 to 4.30.
The figure for `O=C(NC(c1ccccc1)c1ccccc1)[C@H]1Cc2c([nH]c3ccccc23)CN1` [Example 6, (3R)-3-diphenylmethylcarbamoyl-1,2,3,4-tetrahydro-9H-pyrido[3,4-b]indole] is 4.21.
In the case of `NC(=O)[C@H](CC(=O)O)NC(=O)[C@H]1Cc2c([nH]c3ccccc23)CN1C(=O)c1ccccc1` [Example 8, N-[(3R)-2-benzoyl-1,2,3,4-tetrahydro-9H-pyrido[3,4-b]indole-3-carboxyl]-L-aspartic acid amide], the pIC50 was 4.09.
The figure for `CC(C)C[C@H](NC(=O)[C@H]1Cc2c([nH]c3ccccc23)CN1C(=O)c1ccccc1)C(=O)N[C@@H](CC(=O)O)C(N)=O` [Example 9, N-[(3R)-2-benzoyl-1,2,3,4-tetrahydro-9H-pyrido[3,4-b]indole-3-carboxyl]-L-leucyl-L-aspartic acid amide] is 3.64; for `CC(C)C[C@H](NC(=O)[C@H]1Cc2c([nH]c3ccccc23)CN1C(=O)c1ccc2ccccc2c1)C(=O)N[C@@H](CC(=O)O)C(N)=O` [Example 10, N-[(3R)-2-(2-naphthoyl)-1,2,3,4-tetrahydro-9H-pyrido[3,4-b]indole-3-carboxyl]-L-leucyl-L-aspartic acid amide] it is 4.60.
The figure for `Cc1cccc(NC(=O)N2Cc3[nH]c4ccccc4c3C[C@@H]2C(=O)N[C@@H](CC(C)C)C(=O)N[C@@H](CC(=O)O)C(N)=O)c1` [Example 11, N-[(3R)-2-(3-methylphenylcarbamoyl)-1,2,3,4-tetrahydro-9H-pyrido[3,4-b]indole-3-carboxyl]-L-leucyl-L-aspartic acid amide] is 4.47.
The figure for `Cc1cccc(NC(=O)N2Cc3[nH]c4ccccc4c3C[C@H]2C(=O)N[C@@H](CC(C)C)C(=O)N[C@@H](CC(=O)O)C(N)=O)c1` [Example 12, N-[(3S)-2-(3-methylphenylcarbamoyl)-1,2,3,4-tetrahydro-9H-pyrido[3,4-b]indole-3-carboxyl]-L-leucyl-L-aspartic acid amide] is 3.77; for `CCCCCN(CCCCC)C(=O)[C@H]1Cc2c([nH]c3ccccc23)CN1C(=O)Nc1cccc(C)c1` [Example 13, (3R)-3-(N,N-dipentylcarbamoyl)-2-(3-methylphenylcarbamoyl)-1,2,3,4-tetrahydro-9H-pyrido[3,4-b]indole] it is 5.00; for `CC(C)C[C@H](NC(=O)[C@H]1Cc2c([nH]c3ccccc23)CN1C(=O)Nc1ccccc1)C(=O)N[C@@H](CC(=O)O)C(N)=O` [Example 14, N-[(3R)-2-phenylcarbamoyl-1,2,3,4-tetrahydro-9H-pyrido[3,4-b]indole-3-carboxyl]-L-leucyl-L-aspartic acid amide] it is below 4.00.
In the case of `CCOC(=O)c1ccc(NC(=O)[C@H]2Cc3c([nH]c4ccccc34)CN2C(=O)OCc2ccccc2)cc1` [Example 15, ethyl 4-N-[(3R)-2-carbobenzoxy-1,2,3,4-tetrahydro-9H-pyrido[3,4-b]indole-3-carboxyl]aminobenzoate], the pIC50 is 5.05.
The figure for `CCOC(=O)c1cccc(NC(=O)[C@H]2Cc3c([nH]c4ccccc34)CN2C(=O)OCc2ccccc2)c1` [Example 16, ethyl 3-N-[(3R)-2-carbobenzoxy-1,2,3,4-tetrahydro-9H-pyrido[3,4-b]indole-3-carboxyl]aminobenzoate] is 4.60 to 5.00; for `CCOC(=O)c1ccccc1NC(=O)[C@H]1Cc2c([nH]c3ccccc23)CN1C(=O)OCc1ccccc1` [Example 17] it is below 5.00; for `O=C(Nc1ccccc1C(=O)N1CCCC1)[C@H]1Cc2c([nH]c3ccccc23)CN1C(=O)OCc1ccccc1` [Example 18, pyrrolidine-2-N-[(3R)-2-carbobenzoxy-1,2,3,4-tetrahydro-9H-pyrido-[3,4-b]indole-3-carboxyl]aminobenzamide] it is 4.60.
The result for `O=C(Nc1ccccc1C(=O)N1CCCC1)[C@@H]1Cc2c([nH]c3ccccc23)CN1C(=O)OCc1ccccc1` [Example 19, pyrrolidine-2-N-[(3S)-2-carbobenzoxy-1,2,3,4-tetrahydro-9H-pyrido[3,4-b]indole-3-carboxyl]aminobenzamide] reads 4.70; that for `O=C(Nc1ccccc1C(=O)N1CCCC1)[C@H]1Cc2c([nH]c3ccccc23)CN1C(=O)c1ccc2ccccc2c1` [Example 20, pyrrolidine-2-N-[(3R)-2-(2-naphthoyl)-1,2,3,4-tetrahydro-9H-pyrido[3,4-b]indole-3-carboxyl]aminobenzamide], below 4.52; that for `CCCCN(CCCC)C(=O)c1ccccc1NC(=O)[C@H]1Cc2c([nH]c3ccccc23)CN1C(=O)OCc1ccccc1` [Example 22], below 5.00.
`CCOC(=O)c1ccccc1NC(=O)[C@@H]1Cc2c([nH]c3ccccc23)CN1C(=O)OCc1ccccc1` [Example 23, ethyl 2-N-[(3S)-2-carbobenzoxy-1,2,3,4-tetrahydro-9H-pyrido[3,4-b]indole-3-carboxyl]aminobenzoate]: the negative logarithm of the IC50 (pIC50) is below 5.00.
The figure for `CC[C@H](C)[C@H](NC(=O)[C@H]1Cc2c([nH]c3ccccc23)CN1C(=O)Nc1ccc(Cl)c(Cl)c1)C(=O)N[C@@H](CC(=O)O)C(N)=O` [Example 24, N-[(3R)-2-(3,4-dichlorophenylcarbamoyl)-1,2,3,4-tetrahydro-9H-pyrido[3,4-b]indol-3-yl]carbonyl-L-isoleucyl-L-aspartic acid amide] is 4.44.

These data come from patent US5162336A, “Tetrahydro-pyrido-indoles as cholecystokinin and gastrin antagonists” (Rhone-Poulenc Rorer Pharmaceuticals Inc., priority 1990, dated 1992).
